Consider twelve molecules from patent publication US10537558B2 (Bantam Pharmaceutical, LLC, priority 2015, dated 2020).

SMILES strings stand for the structures.

The test has as its system BJAB cells. In words: BJAB cell proliferation (Cell Titer Glo). The class given is cell-based. The note with it: Homo sapiens, read-out: EC50. The method in brief: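 EC50 values come from non-linear regression of luminescence (Cell Titer Glo), expressed relative to untreated wells. BJAB cells were incubated roughly 72 h at 37 °C with serial compound dilutions carrying 0.1% final DMSO.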
In general terms: ATP-based viability assays read luminescence as a measure of living cells.
On to `Cc1cc(-c2c(C)nn(-c3nc(-c4ccc(Cl)c(Cl)c4)c(SC(C)C)s3)c2C(=O)O)ccn1` [Compound 167, 1-(4-(3,4-dichlorophenyl)-5-(isopropylthio)thiazol-2-yl)-3-methyl-4-(2-methylpyridin-4-yl)-1H-pyrazole-5-carboxylic Acid], for which the concentration for a half-maximal effect (EC50) (commonly the midpoint of the concentration-response curve) was in the range of 1 to 5 µM.
The figure for `Cc1nn(-c2nc(-c3cccc4[nH]ccc34)c(SC(C)C)s2)c(C(=O)O)c1-c1cccc(F)c1` [Compound 168, 1-(4-(1H-indol-4-yl)-5-(isopropylthio)thiazol-2-yl)-4-(3-fluorophenyl)-3-methyl-1H-pyrazole-5-carboxylic acid] is over 25 µM; for `Cc1nn(-c2nc(-c3cccc(F)c3)c(SC(C)C)s2)c(C(=O)O)c1-c1cccc2[nH]ccc12` [Compound 169, 1-(4-(3-fluorophenyl)-5-(isopropylthio)thiazol-2-yl)-4-(1H-indol-4-yl)-3-methyl-1H-pyrazole-5-carboxylic acid] it is over 25 µM; for `Cc1nn(-c2nc(-c3ccc4[nH]ccc4c3)c(SC(C)C)s2)c(C(=O)O)c1-c1cccc(F)c1` [Compound 170, 1-(4-(1H-indol-5-yl)-5-(isopropylthio)thiazol-2-yl)-4-(3-fluorophenyl)-3-methyl-1H-pyrazole-5-carboxylic acid] it is over 25 µM.
The figure for `Cc1nn(-c2nc(C#CC3CC3)c(SC(C)C)s2)c(C(=O)O)c1-c1cccc(F)c1` [Compound 171, 1-(4-(cyclopropylethynyl)-5-(isopropylthio)thiazol-2-yl)-4-(3-fluorophenyl)-3-methyl-1H-pyrazole-5-carboxylic acid] is over 25 µM; for `Cc1nn(-c2nc(C3CC3)c(SC(C)C)s2)c(C(=O)O)c1C1CC1` [Compound 172, 4-cyclopropyl-1-(4-cyclopropyl-5-(isopropylthio)thiazol-2-yl)-3-methyl-1H-pyrazole-5-carboxylic Acid] it is over 25 µM.
The figure for `Cc1nn(-c2nc(-c3ccc(Cl)c(Cl)c3)c(SC(C)C)s2)c(C(=O)O)c1C1CC1` [Compound 173, 4-cyclopropyl-1-(4-(3,4-dichlorophenyl)-5-(isopropylthio)thiazol-2-yl)-3-methyl-1H-pyrazole-5-carboxylic Acid] is 10 to 25 µM; for `Cc1nn(-c2nc(-c3ccc(Cl)c(Cl)c3)c(SC(C)C)s2)c(C(=O)O)c1-c1cc(Cl)cc(OC(C)C)c1` [Compound 174, 4-(3-chloro-5-isopropoxyphenyl)-1-(4-(3,4-dichlorophenyl)-5-(isopropylthio)thiazol-2-yl)-3-methyl-1H-pyrazole-5-carboxylic Acid] it is 1 to 5 µM.
As for `Cc1nn(-c2nc(-c3cccc(Cl)c3)c(SC(C)C)s2)c(C(=O)O)c1-c1cccc(F)c1` [Compound 176, 1-(4-(3-chlorophenyl)-5-(isopropylthio)thiazol-2-yl)-4-(3-fluorophenyl)-3-methyl-1H-pyrazole-5-carboxylic Acid], the 50% effective concentration (EC50) was in the range of 5 to 10 µM.
The figure for `Cc1nn(-c2nc(-c3ccc(Cl)cc3)c(SC(C)C)s2)c(C(=O)O)c1-c1cccc(F)c1` [Compound 177, 1-(4-(4-chlorophenyl)-5-(isopropylthio)thiazol-2-yl)-4-(3-fluorophenyl)-3-methyl-1H-pyrazole-5-carboxylic Acid] is under 1 µM; for `Cc1nn(-c2nc(-c3ccc(Cl)cc3Cl)c(SC(C)C)s2)c(C(=O)O)c1-c1cccc(F)c1` [Compound 178, 1-(4-(2,4-dichlorophenyl)-5-(isopropylthio)thiazol-2-yl)-4-(3-fluorophenyl)-3-methyl-1H-pyrazole-5-carboxylic Acid] it is 1 to 5 µM.
For `Cc1nn(-c2nc(-c3ccc(-c4cccc(F)c4)nc3)c(SC(C)C)s2)c(C(=O)O)c1Br` [Compound 179, 4-bromo-1-(4-(6-(3-fluorophenyl)pyridin-3-yl)-5-(isopropylthio)thiazol-2-yl)-3-methyl-1H-pyrazole-5-carboxylic Acid], the concentration giving a half-maximal response (EC50) lay in the range of 25 to 50 µM.
